Reference: ChEMBL document CHEMBL5724914, “Linking interpersonal differences in gut microbiota composition and drug biotransformation activity” (2024)

Tests used:
[1] = The drug is tested on Z-009 corresponding to pig gut metagenome with ENA study accession number: PRJEB37062 and ENA sample accession number: ERS12561809 for biotransformation under anaerobic condition. The drug concentrations were measured over 9 timepoints collected between 0 and 24 hours of incubation by liquid-chromatography-coupled mass spectrometry (LC–MS); details: 2 µM
[2] = The drug is tested on WLS-370 corresponding to human gut metagenome with ENA study accession number: PRJEB37062 and ENA sample accession number: ERS12561793 for biotransformation under anaerobic condition. The drug concentrations were measured over 9 timepoints collected between 0 and 24 hours of incubation by liquid-chromatography-coupled mass spectrometry (LC–MS); details: 2 µM
[3] = human gut metagenome, 24 h, 2 µM
[4] = human gut metagenome, 24 h, 2 µM; remark: listed apart in the source
[5] = The drug is tested on Z-002 corresponding to rabbit gut metagenome with ENA study accession number: PRJEB37062 and ENA sample accession number: ERS12561802 for biotransformation under anaerobic condition. The drug concentrations were measured over 9 timepoints collected between 0 and 24 hours of incubation by liquid-chromatography-coupled mass spectrometry (LC–MS); details: 2 µM
[6] = The drug is tested on WLS-038 corresponding to human gut metagenome with ENA study accession number: PRJEB37062 and ENA sample accession number: ERS12561745 for biotransformation under anaerobic condition. The drug concentrations were measured over 9 timepoints collected between 0 and 24 hours of incubation by liquid-chromatography-coupled mass spectrometry (LC–MS); details: 2 µM
[7] = The drug is tested on WLS-073 corresponding to human gut metagenome with ENA study accession number: PRJEB37062 and ENA sample accession number: ERS12561749 for biotransformation under anaerobic condition. The drug concentrations were measured over 9 timepoints collected between 0 and 24 hours of incubation by liquid-chromatography-coupled mass spectrometry (LC–MS); details: 2 µM
[8] = human gut metagenome, 24 h, 2 µM; remark: listed apart in the source
[9] = The drug is tested on Z-003 corresponding to pig gut metagenome with ENA study accession number: PRJEB37062 and ENA sample accession number: ERS12561803 for biotransformation under anaerobic condition. The drug concentrations were measured over 9 timepoints collected between 0 and 24 hours of incubation by liquid-chromatography-coupled mass spectrometry (LC–MS); details: 2 µM
Note: call rule not given here.

SMILES: CN(C)C(=O)C(CCN1CCC(O)(c2ccc(Cl)cc2)CC1)(c1ccccc1)c1ccccc1 [LOPERAMIDE]
- Bacterial Biotransformation [1]: Compound metabolized
- Bacterial Biotransformation [2]: Compound metabolized
- Bacterial Biotransformation [3]: Compound metabolized
- Bacterial Biotransformation [4]: Compound metabolized
- Bacterial Biotransformation [5]: Compound metabolized
- Bacterial Biotransformation [6]: Compound metabolized
- Bacterial Biotransformation [7]: Compound NOT metabolized
- Bacterial Biotransformation [8]: Compound metabolized
- Bacterial Biotransformation [9]: Compound metabolized

SMILES: CCCCc1nc(Cl)c(CO)n1Cc1ccc(-c2ccccc2-c2nn[nH]n2)cc1 [LOSARTAN]
- Bacterial Biotransformation [1]: Compound NOT metabolized
- Bacterial Biotransformation [2]: Compound metabolized
- Bacterial Biotransformation [3]: Compound metabolized
- Bacterial Biotransformation [4]: Compound NOT metabolized
- Bacterial Biotransformation [5]: Compound NOT metabolized
- Bacterial Biotransformation [6]: Compound NOT metabolized
- Bacterial Biotransformation [7]: Compound NOT metabolized
- Bacterial Biotransformation [8]: Compound metabolized
- Bacterial Biotransformation [9]: Compound NOT metabolized

SMILES: COC(=O)Nc1nc2ccc(C(=O)c3ccccc3)cc2[nH]1 [MEBENDAZOLE]
- Bacterial Biotransformation [1]: Compound metabolized
- Bacterial Biotransformation [2]: Compound metabolized
- Bacterial Biotransformation [3]: Compound metabolized
- Bacterial Biotransformation [4]: Compound metabolized
- Bacterial Biotransformation [5]: Compound metabolized
- Bacterial Biotransformation [6]: Compound metabolized
- Bacterial Biotransformation [7]: Compound metabolized
- Bacterial Biotransformation [8]: Compound metabolized
- Bacterial Biotransformation [9]: Compound metabolized

SMILES: COc1ccccc1OCC(O)COC(N)=O (stereo unspecified) [METHOCARBAMOL]
- Bacterial Biotransformation [1]: Compound NOT metabolized
- Bacterial Biotransformation [2]: Compound NOT metabolized
- Bacterial Biotransformation [3]: Compound NOT metabolized
- Bacterial Biotransformation [4]: Compound NOT metabolized
- Bacterial Biotransformation [5]: Compound NOT metabolized
- Bacterial Biotransformation [6]: Compound NOT metabolized
- Bacterial Biotransformation [7]: Compound NOT metabolized
- Bacterial Biotransformation [8]: Compound NOT metabolized
- Bacterial Biotransformation [9]: Compound NOT metabolized

SMILES: CC[C@@H](CO)NC(=O)[C@@H]1C=C2c3cccc4c3c(cn4C)C[C@H]2N(C)C1.O=C(O)/C=C\C(=O)O [METHYSERGIDE MALEATE]
- Bacterial Biotransformation [1]: Compound NOT metabolized
- Bacterial Biotransformation [2]: Compound NOT metabolized
- Bacterial Biotransformation [3]: Compound metabolized
- Bacterial Biotransformation [4]: Compound NOT metabolized
- Bacterial Biotransformation [5]: Compound NOT metabolized
- Bacterial Biotransformation [6]: Compound NOT metabolized
- Bacterial Biotransformation [7]: Compound NOT metabolized
- Bacterial Biotransformation [8]: Compound NOT metabolized
- Bacterial Biotransformation [9]: Compound NOT metabolized

SMILES: CCN(CC)CCNC(=O)c1cc(Cl)c(N)cc1OC [METOCLOPRAMIDE]
- Bacterial Biotransformation [1]: Compound NOT metabolized
- Bacterial Biotransformation [2]: Compound NOT metabolized
- Bacterial Biotransformation [3]: Compound NOT metabolized
- Bacterial Biotransformation [4]: Compound NOT metabolized
- Bacterial Biotransformation [5]: Compound NOT metabolized
- Bacterial Biotransformation [6]: Compound NOT metabolized
- Bacterial Biotransformation [7]: Compound NOT metabolized
- Bacterial Biotransformation [8]: Compound NOT metabolized
- Bacterial Biotransformation [9]: Compound NOT metabolized

SMILES: Cc1ccccc1N1C(=O)c2cc(S(N)(=O)=O)c(Cl)cc2NC1C (stereo unspecified) [METOLAZONE]
- Bacterial Biotransformation [1]: Compound NOT metabolized
- Bacterial Biotransformation [2]: Compound NOT metabolized
- Bacterial Biotransformation [3]: Compound NOT metabolized
- Bacterial Biotransformation [4]: Compound NOT metabolized
- Bacterial Biotransformation [5]: Compound NOT metabolized
- Bacterial Biotransformation [6]: Compound NOT metabolized
- Bacterial Biotransformation [7]: Compound NOT metabolized
- Bacterial Biotransformation [8]: Compound metabolized
- Bacterial Biotransformation [9]: Compound NOT metabolized

SMILES: COCCc1ccc(OCC(O)CNC(C)C)cc1.COCCc1ccc(OCC(O)CNC(C)C)cc1.O=C(O)C(O)C(O)C(=O)O (stereo unspecified) [METOPROLOL TARTRATE]
- Bacterial Biotransformation [1]: Compound NOT metabolized
- Bacterial Biotransformation [2]: Compound metabolized
- Bacterial Biotransformation [3]: Compound NOT metabolized
- Bacterial Biotransformation [4]: Compound metabolized
- Bacterial Biotransformation [5]: Compound metabolized
- Bacterial Biotransformation [6]: Compound NOT metabolized
- Bacterial Biotransformation [7]: Compound NOT metabolized
- Bacterial Biotransformation [8]: Compound NOT metabolized
- Bacterial Biotransformation [9]: Compound metabolized

SMILES: COc1c(C)c2c(c(O)c1C/C=C(\C)CCC(=O)OCCN1CCOCC1)C(=O)OC2 [MYCOPHENOLATE MOFETIL]
- Bacterial Biotransformation [1]: Compound metabolized
- Bacterial Biotransformation [2]: Compound metabolized
- Bacterial Biotransformation [3]: Compound metabolized
- Bacterial Biotransformation [4]: Compound metabolized
- Bacterial Biotransformation [5]: Compound metabolized
- Bacterial Biotransformation [6]: Compound metabolized
- Bacterial Biotransformation [7]: Compound metabolized
- Bacterial Biotransformation [8]: Compound metabolized
- Bacterial Biotransformation [9]: Compound metabolized

SMILES: CCN(CC)CCOC(=O)C(Cc1cccc2ccccc12)CC1CCCO1.O=C(O)C(=O)O (stereo unspecified) [NAFRONYL OXALATE]
- Bacterial Biotransformation [1]: Compound metabolized
- Bacterial Biotransformation [2]: Compound NOT metabolized
- Bacterial Biotransformation [3]: Compound metabolized
- Bacterial Biotransformation [4]: Compound metabolized
- Bacterial Biotransformation [5]: Compound metabolized
- Bacterial Biotransformation [6]: Compound metabolized
- Bacterial Biotransformation [7]: Compound metabolized
- Bacterial Biotransformation [8]: Compound metabolized
- Bacterial Biotransformation [9]: Compound metabolized

SMILES: C=CCN1CC[C@]23c4c5ccc(O)c4O[C@H]2C(=O)CC[C@@]3(O)[C@H]1C5 [NALOXONE]
- Bacterial Biotransformation [1]: Compound NOT metabolized
- Bacterial Biotransformation [2]: Compound NOT metabolized
- Bacterial Biotransformation [3]: Compound NOT metabolized
- Bacterial Biotransformation [4]: Compound NOT metabolized
- Bacterial Biotransformation [5]: Compound NOT metabolized
- Bacterial Biotransformation [6]: Compound NOT metabolized
- Bacterial Biotransformation [7]: Compound NOT metabolized
- Bacterial Biotransformation [8]: Compound metabolized
- Bacterial Biotransformation [9]: Compound metabolized

SMILES: CCc1nn(CCCN2CCN(c3cccc(Cl)c3)CC2)c(=O)n1CCOc1ccccc1 [NEFAZODONE]
- Bacterial Biotransformation [1]: Compound NOT metabolized
- Bacterial Biotransformation [2]: Compound NOT metabolized
- Bacterial Biotransformation [3]: Compound metabolized
- Bacterial Biotransformation [4]: Compound NOT metabolized
- Bacterial Biotransformation [5]: Compound NOT metabolized
- Bacterial Biotransformation [6]: Compound metabolized
- Bacterial Biotransformation [7]: Compound NOT metabolized
- Bacterial Biotransformation [8]: Compound metabolized
- Bacterial Biotransformation [9]: Compound NOT metabolized

SMILES: CN1CCOC(c2ccccc2)c2ccccc2C1 (stereo unspecified) [NEFOPAM]
- Bacterial Biotransformation [1]: Compound NOT metabolized
- Bacterial Biotransformation [2]: Compound metabolized
- Bacterial Biotransformation [3]: Compound NOT metabolized
- Bacterial Biotransformation [4]: Compound metabolized
- Bacterial Biotransformation [5]: Compound NOT metabolized
- Bacterial Biotransformation [6]: Compound NOT metabolized
- Bacterial Biotransformation [7]: Compound NOT metabolized
- Bacterial Biotransformation [8]: Compound NOT metabolized
- Bacterial Biotransformation [9]: Compound NOT metabolized

SMILES: Cc1ccnc2c1NC(=O)c1cccnc1N2C1CC1 [NEVIRAPINE]
- Bacterial Biotransformation [1]: Compound NOT metabolized
- Bacterial Biotransformation [2]: Compound metabolized
- Bacterial Biotransformation [3]: Compound metabolized
- Bacterial Biotransformation [4]: Compound NOT metabolized
- Bacterial Biotransformation [5]: Compound metabolized
- Bacterial Biotransformation [6]: Compound NOT metabolized
- Bacterial Biotransformation [7]: Compound NOT metabolized
- Bacterial Biotransformation [8]: Compound NOT metabolized
- Bacterial Biotransformation [9]: Compound NOT metabolized
